Measured values taken from PubChem BioAssay AID256 (DTP/NCI, 2004).
Values joined by “and” are separate entries in the source; they are usually repeats but may differ in a detail not shown here. Equal entries are not always repeated. Toxic doses and inconclusive results are not listed. How the source made its calls: active means survival T/C of 150% or more; inactive means T/C below 125% in these data.

Test system: CD2F1 mice, L1210 leukemia ip, survival T/C
Assay: NCI In Vivo Anticancer Drug Screen. Data for tumor model L1210 Leukemia (intraperitoneal) in CD2F1 (CDF1) mice
Settings: higher = longer survival
Procedure, shortened: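 Activity against a transplanted murine tumor was judged by comparing the compound group with a vehicle group. The outcome in the treated animals was divided by that in the controls.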

[1] = endpoint: mean survival time, dose: 25.0 mg/kg/injection, schedule: Q04DX003 (ip), vehicle: saline with Tween-80
[2] = endpoint: mean survival time, dose: 50.0 mg/kg/injection, schedule: Q01DX001 (ip), vehicle: saline with Tween-80
[3] = endpoint: mean survival time, dose: 50.0 mg/kg/injection, schedule: Q04DX002 (ip), vehicle: saline with Tween-80
[4] = endpoint: mean survival time, dose: 50.0 mg/kg/injection, schedule: Q04DX003 (ip), vehicle: saline with Tween-80
[5] = endpoint: mean survival time, dose: 100.0 mg/kg/injection, schedule: Q01DX001 (ip), vehicle: saline with Tween-80
[6] = endpoint: mean survival time, dose: 100.0 mg/kg/injection, schedule: Q04DX002 (ip), vehicle: saline with Tween-80
[7] = endpoint: mean survival time, dose: 100.0 mg/kg/injection, schedule: Q04DX003 (ip), vehicle: saline with Tween-80
[8] = endpoint: mean survival time, dose: 200.0 mg/kg/injection, schedule: Q01DX001 (ip), vehicle: saline with Tween-80
[9] = endpoint: mean survival time, dose: 400.0 mg/kg/injection, schedule: Q01DX001 (ip), vehicle: saline with Tween-80
[10] = endpoint: mean survival time, dose: 100.0 mg/kg/injection, schedule: Q01DX001 (ip), vehicle: saline
[11] = endpoint: mean survival time, dose: 200.0 mg/kg/injection, schedule: Q01DX001 (ip), vehicle: saline
[12] = endpoint: mean survival time, dose: 25.0 mg/kg/injection, schedule: Q04DX002 (ip), vehicle: saline with Tween-80
[13] = endpoint: mean survival time, dose: 100.0 mg/kg/injection, schedule: Q01DX009 (ip), vehicle: saline with Tween-80
[14] = endpoint: mean survival time, dose: 50.0 mg/kg/injection, schedule: Q01DX009 (ip), vehicle: saline with Tween-80
[15] = endpoint: mean survival time, dose: 200.0 mg/kg/injection, schedule: Q01DX009 (ip), vehicle: saline with Tween-80
[16] = endpoint: mean survival time, dose: 200.0 mg/kg/injection, schedule: Q04DX003 (ip), vehicle: saline with Tween-80
[17] = endpoint: mean survival time, dose: 400.0 mg/kg/injection, schedule: Q01DX009 (ip), vehicle: saline with Tween-80
[18] = endpoint: mean survival time, dose: 400.0 mg/kg/injection, schedule: Q04DX003 (ip), vehicle: saline with Tween-80

Measured: T/C

CC(=O)NC1C(OC(C)=O)OC(COC(c2ccccc2)(c2ccccc2)c2ccccc2)C(O)C1OC(C)=O (centres undefined)
inactive: endpoint: mean survival time, dose: 12.5 mg/kg/injection, schedule: Q04DX002 (ip), vehicle: saline with Tween-80 93 % of control | endpoint: mean survival time, dose: 12.5 mg/kg/injection, schedule: Q04DX003 (ip), vehicle: saline with Tween-80 103 % of control | [1] 95 % of control | [2] 88 % of control | [3] 91 % of control | [4] 87 % of control | [5] 87 % of control | [6] 88 % of control | [7] 93 % of control | [8] 88 % of control | [9] 90 % of control

O=S1CCS(=O)CC1 (centres undefined)
inactive: [10] 96 % of control | [11] 93 % of control | endpoint: mean survival time, dose: 400.0 mg/kg/injection, schedule: Q01DX001 (ip), vehicle: saline 98 % of control

[Br][Ni][Br].[NH-]CC[NH-].[NH-]CC[NH-]
inactive: [12] 104 % of control | [3] 110 % of control

N#CC(/C=C/c1ccccc1)Nc1ccccc1O (centres undefined)
inactive: [13] 93 % of control

Cc1n[nH]c2ccc(Br)cc2c1=O
inactive: [14] 97 % of control | [13] 91 % of control | [7] 101 % of control | [15] 101 % of control | [16] 87 % of control

C/C=C\C=C\C(=O)O
inactive: [13] 100 % of control | [15] 97 % of control | [17] 100 % of control

CCC1OC(OC)C=CC1=O (centres undefined)
inactive: endpoint: median survival time, dose: 12.5 mg/kg/injection, schedule: Q01DX009 (ip), vehicle: saline 100 % of control | endpoint: median survival time, dose: 25.0 mg/kg/injection, schedule: Q01DX009 (ip), vehicle: saline 102 % of control | endpoint: median survival time, dose: 50.0 mg/kg/injection, schedule: Q01DX009 (ip), vehicle: saline 105 % of control | endpoint: median survival time, dose: 100.0 mg/kg/injection, schedule: Q01DX009 (ip), vehicle: saline 102 % of control

O=C(O)c1cccc(-c2c3ccc(=O)cc-3oc3cc(O)ccc23)c1
inactive: [7] 96 % of control | [16] 100 % of control | [18] 96 % of control

O=C1C(Cl)=C(SCc2ccccc2)C(=O)c2ccccc21
inactive: [1] 91 % of control | [4] 91 % of control

O=C(Oc1cccc(O)c1)c1ccccc1
inactive: [13] 104 % of control | [7] 89 % of control | [15] 100 % of control | [16] 92 % of control | [17] 96 % of control | [18] 101 % of control

O=S(=O)(Nc1ccc2ccccc2c1)c1ccccc1
inactive: [13] 98 % of control | endpoint: mean survival time, dose: 100.0 mg/kg/injection, schedule: Q04DX003 (ip), vehicle: saline 104 % of control | [15] 98 % of control | endpoint: mean survival time, dose: 200.0 mg/kg/injection, schedule: Q04DX003 (ip), vehicle: saline 101 % of control | [17] 98 % of control | endpoint: mean survival time, dose: 400.0 mg/kg/injection, schedule: Q04DX003 (ip), vehicle: saline 96 % of control

COCc1c(C)c(C)c(COC)c(C)c1C
inactive: endpoint: mean survival time, dose: 50.0 mg/kg/injection, schedule: Q01DX009 (ip), vehicle: saline 95 % of control | endpoint: mean survival time, dose: 100.0 mg/kg/injection, schedule: Q01DX009 (ip), vehicle: saline 97 % of control | endpoint: mean survival time, dose: 200.0 mg/kg/injection, schedule: Q01DX009 (ip), vehicle: saline 88 % of control

CC1(C(=O)O)CC2CCC1CC2 (centres undefined)
inactive: [3] 96 % of control | [6] 107 % of control | endpoint: mean survival time, dose: 200.0 mg/kg/injection, schedule: Q04DX002 (ip), vehicle: saline with Tween-80 100 % of control | endpoint: mean survival time, dose: 400.0 mg/kg/injection, schedule: Q04DX002 (ip), vehicle: saline with Tween-80 96 % of control

COc1ccc(C(O)c2ccccc2S(=O)(=O)N(C)C)cc1 (centres undefined)
inactive: endpoint: mean survival time, dose: 100.0 mg/kg/injection, schedule: Q01DX009 (ip), vehicle: saline sonified 105 % of control | endpoint: mean survival time, dose: 200.0 mg/kg/injection, schedule: Q01DX009 (ip), vehicle: saline sonified 96 % of control | endpoint: mean survival time, dose: 400.0 mg/kg/injection, schedule: Q01DX009 (ip), vehicle: saline sonified 93 % of control

CCOC(=O)c1c(O)c2c([nH]c1=O)CCc1ccccc1-2
inactive: endpoint: mean survival time, dose: 12.5 mg/kg/injection, schedule: Q01DX009 (ip), vehicle: saline with Tween-80 98 % of control | endpoint: mean survival time, dose: 25.0 mg/kg/injection, schedule: Q01DX001 (ip), vehicle: saline with Tween-80 98 % of control | endpoint: mean survival time, dose: 25.0 mg/kg/injection, schedule: Q01DX009 (ip), vehicle: saline with Tween-80 95 % of control | [2] 93 % of control | [14] 95 % of control | [5] 103 % of control

c1ccc2c3c(ccc2c1)OCCOCCOCCOCCOc1ccc2ccccc2c1-3
inactive: [5] 91 % of control | [8] 100 % of control | [9] 100 % of control

CN1CCc2c3n(c4ccccc24)C(=O)CCC31 (centres undefined)
inactive: endpoint: mean survival time, dose: 6.25 mg/kg/injection, schedule: Q04DX003 (ip), vehicle: saline sonified 101 % of control | endpoint: mean survival time, dose: 12.5 mg/kg/injection, schedule: Q04DX003 (ip), vehicle: saline sonified 90 % of control | endpoint: mean survival time, dose: 25.0 mg/kg/injection, schedule: Q04DX003 (ip), vehicle: saline sonified 97 % of control

COC(=O)c1nc2ccccc2cc1C#N
inactive: [10] 97 % of control | [11] 96 % of control

Cc1[nH]c2ccccc2c1C(=O)C(N)=O
inactive: [13] 100 % of control | [7] 92 % of control | [15] 97 % of control | [16] 86 % of control | [17] 95 % of control | [18] 92 % of control

Nc1nc(SCc2ccc([N+](=O)[O-])cc2)c2[nH]cnc2n1
inactive: [13] 94 % of control | [7] 97 % of control | [15] 101 % of control | [16] 97 % of control | [17] 95 % of control | [18] 96 % of control

CCCCCC(CN(C)C)C(=O)/C=C\c1ccc(Cl)cc1Cl (centres undefined)
inactive: endpoint: mean survival time, dose: 12.5 mg/kg/injection, schedule: Q01DX009 (ip), vehicle: alcohol 102 % of control | endpoint: mean survival time, dose: 25.0 mg/kg/injection, schedule: Q01DX009 (ip), vehicle: alcohol 102 % of control

COc1ccccc1NC1=NCCO1
inactive: [12] 105 % of control | [3] 97 % of control | [5] 90 % of control | [6] 94 % of control

CCNC(=O)OCC1C2=C(C(=O)C(C)=C(N)C2=O)N2CC3C(N3C)C12OC (centres undefined)
inactive: endpoint: mean survival time, dose: 133.0 mg/kg/injection, schedule: Q01DX001 (ip), vehicle: carboxymethylcellulose (CMC) 118 % of control | endpoint: mean survival time, dose: 300.0 mg/kg/injection, schedule: Q01DX001 (ip), vehicle: carboxymethylcellulose (CMC) 111 % of control

O=C1N[C@H]2[C@H](CS[C@H]2CCCCC(=O)N(CCP(c2ccccc2)c2ccccc2)CCP(c2ccccc2)c2ccccc2)N1
inactive: endpoint: median survival time, dose: 25.0 mg/kg/injection, schedule: Q01DX009 (ip), vehicle: Klucel (hydroxypropylcellulose) (HPC) 100 % of control and 107 % of control | endpoint: median survival time, dose: 50.0 mg/kg/injection, schedule: Q01DX009 (ip), vehicle: Klucel (hydroxypropylcellulose) (HPC) 98 % of control and 107 % of control | endpoint: median survival time, dose: 100.0 mg/kg/injection, schedule: Q01DX009 (ip), vehicle: Klucel (hydroxypropylcellulose) (HPC) 103 % of control and 109 % of control | endpoint: median survival time, dose: 200.0 mg/kg/injection, schedule: Q01DX009 (ip), vehicle: Klucel (hydroxypropylcellulose) (HPC) 97 % of control and 110 % of control | endpoint: median survival time, dose: 400.0 mg/kg/injection, schedule: Q01DX009 (ip), vehicle: Klucel (hydroxypropylcellulose) (HPC) 90 % of control and 108 % of control

COC(=O)N1c2ccc(OC)cc2C=CC1C#N (centres undefined)
inactive: [13] 94 % of control | [7] 96 % of control | [15] 95 % of control | [16] 102 % of control | [17] 103 % of control | [18] 94 % of control

O=[N+]([O-])C(Br)(CO)CO
inactive: endpoint: mean survival time, dose: 4.7 mg/kg/injection, schedule: Q01DX009 (ip), vehicle: saline 101 % of control | endpoint: mean survival time, dose: 4.7 mg/kg/injection, schedule: Q04DX003 (ip), vehicle: saline 98 % of control | endpoint: mean survival time, dose: 9.4 mg/kg/injection, schedule: Q01DX009 (ip), vehicle: saline 101 % of control | endpoint: mean survival time, dose: 9.4 mg/kg/injection, schedule: Q04DX003 (ip), vehicle: saline 96 % of control | endpoint: mean survival time, dose: 18.8 mg/kg/injection, schedule: Q01DX001 (ip), vehicle: saline 102 % of control | endpoint: mean survival time, dose: 18.8 mg/kg/injection, schedule: Q01DX009 (ip), vehicle: saline 95 % of control | endpoint: mean survival time, dose: 18.8 mg/kg/injection, schedule: Q04DX003 (ip), vehicle: saline 105 % of control

O=C(C[n+]1csc2ccccc21)c1ccccc1
inactive: [13] 106 % of control | [7] 97 % of control | [15] 92 % of control | [16] 106 % of control | [17] 87 % of control | [18] 109 % of control
